According to article PMC8050276, “Estradiol analogs attenuate autophagy, cell migration and invasion by direct and selective inhibition of TRPML1, independent of estrogen receptors” (Scientific Reports, 2021):

Experiments:
hTPC2L11A/L12A-RFP = target: T1, hTPC2L11A/L12A-RFP (Homo sapiens, UniProt Q8NHX9, L11A/L12A); experiment: Fluo-4 Ca2+ assay, HEK293 stably expressing hTPC2L11A/L12A-RFP, activated with TPC2-A1-N or TPC2-A1-P; type: cell-based; conditions: activated by either TPC2-A1-P or TPC2-A1-N
T1 construct: expressed in transfected cells

[1] = system: TRPC3, 4, 5, 6, and 7; TRPM2, 3, and 8; TRPV1, 2, 3, and 4; experiment: Fluo-4 counter screen against other TRP channels stably expressed in HEK293; type: cell-based; conditions: most channels; activated with known ligands
[2] = target: T2, hTRPML1L15/16A, L577/578A (Homo sapiens, UniProt Q9GZU1, L15A/L16A); experiment: Whole-cell patch-clamp, tetracycline-inducible HEK293 hTRPML1L15/16A, L577/578A; type: cell-based; conditions: 30 µM ML-SA1, pH 4.6; read-out: TRPML1 IC50, whole-cell patch-clamp
T2 construct: host or cells: HEK293, FLP-in-Tet-On, tetracycline-induced
Method: (§1) For whole-cell patch-clamp experiments tetracycline-inducible hTRPML1L15/16A, L577/578A, hTRPML2 and TRPML3 HEK293 cell lines were used, generated by ICAGEN Inc. using the FLP-in-Tet-On system. Experiments were performed as described previously[20],[42]. In brief, cells were cultured on coverslips (Fisherbrand, Fisher Scientific) in complete DMEM medium with 10% FBS (Thermo Fisher). HEK293 cells expressing the desired channel protein were patch-clamped after overnight induction with tetracycline (1 µg/mL). […] The pipette solution contained (mM) 122 Cs‐methanosulfonate, 4 NaCl, 10 EGTA, 2 Na-ATP, 2 MgCl2 and 20 HEPES, pH 7.2 (with CsOH). The standard bath solution contained (mM) 153 NaCl, 5 KCl, 2 CaCl2, 1 MgCl2, 20 HEPES and 10 Glucose (pH 7.4 with NaOH). The low pH bath solution contained (mM) 150 Na-Gluconate, 5 KCl, 2 CaCl2, 1 MgCl2, 10 glucose, 10 HEPES and 10 MES (pH 4.6). Whole‐cell currents were recorded using a Multiclamp 700B amplifier (Molecular Devices) with low‐pass filtering at 3 kHz. The currents were digitized at a sampling frequency of 10 kHz using BNC-2110 and PCI-6221 with NI-DAQmx (National Instruments) and stored directly to a hard drive. Current recording was done with WinWCP5.2.7 (University of Strathclyde, UK) software, and analysis was done with the help of a customized Igor pro program (WaveMetrics).

hTRPML3 = target: T3, hTRPML3 (Homo sapiens, UniProt Q8TDD5); experiment: Whole-cell patch-clamp, tetracycline-inducible HEK293 hTRPML3; type: cell-based; conditions: 30 µM ML-SA1, pH 7.4
T3 construct: host or cells: HEK293, FLP-in-Tet-On, tetracycline-induced
T3 sequence (Q8TDD5 1-553): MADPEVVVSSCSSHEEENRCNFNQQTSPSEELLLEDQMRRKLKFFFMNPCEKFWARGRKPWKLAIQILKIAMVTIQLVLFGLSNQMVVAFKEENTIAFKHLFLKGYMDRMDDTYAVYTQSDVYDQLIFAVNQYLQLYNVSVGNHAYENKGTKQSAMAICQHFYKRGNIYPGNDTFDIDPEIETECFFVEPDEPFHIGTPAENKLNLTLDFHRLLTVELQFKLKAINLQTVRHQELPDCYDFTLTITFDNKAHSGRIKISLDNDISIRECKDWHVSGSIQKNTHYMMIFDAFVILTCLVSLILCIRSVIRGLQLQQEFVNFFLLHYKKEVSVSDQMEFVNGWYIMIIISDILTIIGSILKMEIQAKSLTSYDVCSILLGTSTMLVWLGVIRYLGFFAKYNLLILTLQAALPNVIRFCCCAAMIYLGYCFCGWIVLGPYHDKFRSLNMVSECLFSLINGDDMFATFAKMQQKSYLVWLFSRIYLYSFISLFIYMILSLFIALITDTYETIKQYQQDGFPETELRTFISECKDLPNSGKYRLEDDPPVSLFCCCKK
Method: as §1

hTRPML1 WT = target: T4, hTRPML1 WT (Homo sapiens, UniProt Q9GZU1); experiment: Endolysosomal patch-clamp, vacuolin-enlarged endo-lysosomes from hTRPML1 WT expressing HEK293 cells; type: cell-based; conditions: activation with ML-SA1 (10 µM) or PI(3,5)P2 (1 µM), luminal pH 4.6
T4 construct: expressed in transfected cells; host or cells: HEK293
Method: For whole-LE/LY manual patch-clamp recordings, cells were treated with 1 μM vacuolin-1 (> 2 h) at 37 °C and 5% CO2 and experiments performed as described previously[19],[25]. Compound was washed out before patch-clamp experimentation. Currents were recorded using an EPC-10 patch-clamp amplifier (HEKA, Lambrecht, Germany) and PatchMaster acquisition software (https://www.heka.com/). Data were digitized at 40 kHz and filtered at 2.8 kHz. Fast and slow capacitive transients were cancelled by the compensation circuit of the EPC-10 amplifier. All recordings were obtained at room temperature and were analyzed using PatchMaster acquisition software (https://www.heka.com/) and OriginPro 6.1 (https://www.originlab.com/). […] For all experiments, salt-agar bridges were used to connect the reference Ag–AgCl wire to the bath solution to minimize voltage offsets. Liquid junction potential was corrected. For the application of the small molecule inhibitors/flavonoids, cytoplasmic solution was completely exchanged by cytoplasmic solution containing compound. The current amplitudes at − 100 mV were extracted from individual ramp current recordings. Unless otherwise stated, cytoplasmic solution contained 140 mM K-MSA, 5 mM KOH, 4 mM NaCl, 0.39 mM CaCl2, 1 mM EGTA and 10 mM HEPES (pH was adjusted with KOH to 7.2). […]

MDA-MB-231 cells [3] = experiment: Invasion assay, Matrigel-coated transwell chambers; type: cell-based, human; conditions: various concentrations, 4 h and o/n
Method: For invasion measurements transwell chambers in 24-well permeable support plates (Corning, #3421) were coated with Corning Matrigel basement membrane matrix (Corning, #354234) for 1.5 h. A total of 4 × 104 MDA-MB-231 WT and TRPML1 KO cells were seeded on top of the chambers in serum-free medium, and direct stimulation with EDME was performed. The lower compartment contained the chemotactic gradient, medium with 10% FBS. Cells were allowed to migrate for 4 h and o/n, and were then fixed and stained with crystal violet containing methanol. Non-invaded cells were removed with Q-tips and pictures were taken of the bottom side of the membrane using an inverted microscope (Olympus CKX41) and an Olympus SC50 camera (Olympus). The number of invaded cells was quantified using ImageJ 1.52a software.

MDA-MB-231 cells [4] = experiment: Wound healing/migration scratch assay; type: cell-based, human; conditions: various concentrations, o/n
Method: Wound healing assay was performed using 12-well plates (Sarstedt) at full confluency. Cells were incubated overnight (serum-free), and a scratch was performed using a yellow pipet tip. Pictures were taken at 0 h and after over night (o/n) incubation using an inverted microscope (Leica DM IL LED) and using a microscope camera (Leica DFC 3000 G).

T2 sequence (Q9GZU1 with tags, fused parts or gaps L15A/L16A): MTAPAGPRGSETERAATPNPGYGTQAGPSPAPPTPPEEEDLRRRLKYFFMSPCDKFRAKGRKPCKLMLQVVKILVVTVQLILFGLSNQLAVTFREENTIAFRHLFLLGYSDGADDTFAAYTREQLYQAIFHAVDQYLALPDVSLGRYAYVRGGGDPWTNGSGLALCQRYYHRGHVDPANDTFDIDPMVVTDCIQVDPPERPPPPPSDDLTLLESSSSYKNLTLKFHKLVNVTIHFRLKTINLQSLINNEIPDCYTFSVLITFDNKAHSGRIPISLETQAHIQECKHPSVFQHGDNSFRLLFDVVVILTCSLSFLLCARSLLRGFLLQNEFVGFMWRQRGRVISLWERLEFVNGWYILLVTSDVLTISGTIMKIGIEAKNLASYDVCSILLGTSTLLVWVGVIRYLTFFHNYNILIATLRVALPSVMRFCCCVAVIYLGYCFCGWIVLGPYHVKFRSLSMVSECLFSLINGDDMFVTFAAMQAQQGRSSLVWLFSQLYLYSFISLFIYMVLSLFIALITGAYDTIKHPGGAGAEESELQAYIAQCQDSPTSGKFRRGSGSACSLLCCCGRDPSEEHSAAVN
T1 sequence (Q8NHX9 whole entry L11A/L12A): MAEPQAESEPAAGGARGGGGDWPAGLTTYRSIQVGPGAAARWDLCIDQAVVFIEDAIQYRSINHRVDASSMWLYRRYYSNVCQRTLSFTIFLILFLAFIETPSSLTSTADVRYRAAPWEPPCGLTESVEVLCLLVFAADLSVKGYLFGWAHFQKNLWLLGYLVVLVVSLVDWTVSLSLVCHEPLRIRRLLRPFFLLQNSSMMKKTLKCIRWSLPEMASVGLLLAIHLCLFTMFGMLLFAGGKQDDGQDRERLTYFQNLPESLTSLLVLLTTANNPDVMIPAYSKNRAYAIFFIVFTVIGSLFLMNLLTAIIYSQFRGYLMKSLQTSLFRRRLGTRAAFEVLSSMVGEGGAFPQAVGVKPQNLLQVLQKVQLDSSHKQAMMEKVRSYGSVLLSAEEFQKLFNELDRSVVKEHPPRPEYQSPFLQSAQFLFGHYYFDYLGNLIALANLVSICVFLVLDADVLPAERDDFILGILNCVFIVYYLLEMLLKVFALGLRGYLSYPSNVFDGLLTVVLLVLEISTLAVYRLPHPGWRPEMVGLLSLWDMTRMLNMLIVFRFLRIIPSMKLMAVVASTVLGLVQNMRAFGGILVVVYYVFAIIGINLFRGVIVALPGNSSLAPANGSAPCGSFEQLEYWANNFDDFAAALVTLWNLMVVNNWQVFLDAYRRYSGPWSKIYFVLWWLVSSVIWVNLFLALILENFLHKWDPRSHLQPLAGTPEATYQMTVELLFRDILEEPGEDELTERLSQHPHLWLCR
T4 sequence (Q9GZU1 whole entry): as the sequence (Q9GZU1 with tags, fused parts or gaps L15A/L16A) above, with A15L, A16L, A577L, A578L counted along it

COc1ccc2c(c1)CC[C@@H]1[C@@H]2CC[C@]2(C)[C@@H](O)CC[C@@H]12 [EDME, 17β-estradiol methyl ether]
IC50 at TPC2 (hTPC2L11A/L12A-RFP): no meaningful IC50s | IC50 at other TRP channels [1]: no meaningful IC50s | IC50 [2]: 220 nM | block of TRPML3, whole-cell patch-clamp (hTRPML3): no block | inhibition of WT hTRPML1 current, endolysosomal patch-clamp (hTRPML1 WT): inhibitory effect | invasion of MDA-MB-231 cells (MDA-MB-231 cells [3]): significantly reduced | migration of MDA-MB-231 cells (MDA-MB-231 cells [4]): reduced significantly
